# Measured values: patent publication US11974973B2, “Ketone supplements-evoked effect on absence epilepsy by co-administration of uridine” (UNIVERSITY OF SOUTH FLORIDA, priority 2022, dated 2024)
# “Also recorded” adds a separate entry of the source.
# Assays:
# WAG/Rij rats [1] = experiment: EEG recording of spike-wave discharges (SWD number, averaged and total SWD time) in WAG/Rij rat model of human absence epilepsy; type: in vivo
# Excerpt: Free access to water and food (Table 1), as well as standard laboratory conditions were provided.
# Rats were implanted with stainless steel screw electrodes for EEG recording under isoflurane-air mixture (2.0-2.5%) anesthesia. The screw electrodes were placed epidurally over the cortex of the frontal (AP: 2.0 mm; L: 2.1 mm) and parietal (AP: −6.5 mm; L: 2.1 mm) areas. Reference electrodes and ground electrodes were also stainless-steel screw electrodes (implanted above the cerebellar cortex). All electrodes were soldered to a 10-pin socket and permanently attached to the skull with dentacrylate cement (Ivoclar Vivadent AG, Schaan, Liechtenstein). Lidocaine ointment (5%; EGIS, Budapest, Hungary) was used as post-operative pain relief.
# The EEG was recorded in a Faraday cage. […] The sampling rate was 500 Hz whereas the bandwidth of the EEG recording was 0.3 Hz to 150 Hz. Both the treatments and handling may induce stress and behavioral changes, which may modify the SWD number. […] For this reason, data of the first 30 min after the treatments was excluded from the analysis. Thus, the number and time of SWDs were considered between 30 and 270 min of post-treatment time (from 1.00 PM to 5.00 PM). SWDs (a train of asymmetric 7-11 Hz sharp spikes and slow waves) were cut off from the raw data files and were analyzed by FFT analysis. The recording periods were split into 60 min sections and evaluated separately. […]
# Animals were assigned into eight groups (FIG. 1). To help the rats to adapt to the experimental procedures (e.g., EEG recording), after the two-week recovery period animals were handled daily and were connected to the EEG/CED system for 4 days (once a day, for 4.5 h) (group 1-8). Moreover, on same days, rats of group 7 and group 8 were also gavaged by water (2.5 g/kg/day) for the adaptation of rats to gavage method. To establish averaged control SWD numbers (group 1-8) and control average time and total time of SWDs (group 5, group 6, and group 8), all rats received 1 mL saline i.p. on 3 consecutive days (three control days, first treatment). Thirty min later, animals were injected again with 1 mL saline i.p. (second treatment, group 1-6) or gavaged by 2.5 g/kg water (second treatment, group 7 and 8). […] On the fourth day of experiments, the rats in group 1 and group 2 were i.p. injected with 1 mL 10% DMSO solution (first treatment) and, 30 min later, with 250 mg/kg, and 1000 mg/kg uridine in 1 mL saline (second treatment), respectively. On the fourth day, animals in group 3 first received 0.2 mg/kg DPCPX alone in 1 mL 10% DMSO solution (first treatment) followed by i.p. 1 mL saline (30 min later; second treatment) (FIG. 1). […] On that day, the animals in group 5 were injected with combined i.p. injection of DPCPX and uridine: 0.2 mg/kg DPCPX in 1 mL 10% DMSO solution (first treatment) and, 30 min later, 1000 mg/kg uridine in 1 mL saline (second treatment) were administered. […] Animals of group 7 received i.p. 1 mL saline (first treatment), and 30 min later, gavage of 2.5 g/kg KSMCT was carried out (second treatment) on the fourth day. […] On the fifth (PTC) day, i.p. administration of 1 mL saline (first treatment) was followed by gavage of 2.5 g/kg water (30 min later; second treatment; group 7 and 8) (FIG. 1).
# Data were presented as means±standard error of the mean (S.E.M.). The pretreatment control values of SWD numbers (group 1-8) and SWD time (group 5, group 6, and group 8) were the grand average of SWD numbers and time recorded on the three control days.
# WAG/Rij rats [2] = conditions: effective doses; previous studies [7,8,25,41,45]; cited from earlier work
# [3] = DPCPX i.p. 0.2 mg/kg or SCH 58261 i.p. 0.5 mg/kg alone, PTC day (groups 3 and 4, FIG. 2C,D)
SMILES,"SWD number compared to control (WAG/Rij rats [1]; DPCPX i.p. 0.2 mg/kg alone, treatment day, 30-270 min (group 3, FIG. 2C), 0.2 mg/kg)",SWD number compared to control (WAG/Rij rats [1]; [3]),sleep-waking ratios and averaged time of SWDs (WAG/Rij rats [2]),"SWD number compared to control (WAG/Rij rats [1]; SCH 58261 i.p. 0.5 mg/kg alone, treatment day, four hours recording (group 4, FIG. 2D))","SWD number compared to control (WAG/Rij rats [1]; uridine i.p. 250 mg/kg alone, post-treatment control (PTC) day (group 1, FIG. 2A))","SWD number compared to control (WAG/Rij rats [1]; uridine i.p. 250 mg/kg alone, treatment day, second to fourth hours of recording (group 1, FIG. 2A), 250 mg/kg)","SWD number compared to control (WAG/Rij rats [1]; uridine i.p. 1000 mg/kg alone, PTC day, 30-270 min (group 2, FIG. 2B))","SWD number compared to control (WAG/Rij rats [1]; uridine i.p. 1000 mg/kg alone, treatment day, 90-270 min (group 2, FIG. 2B), 1000 mg/kg)"
"CCCn1c(=O)c2[nH]c(C3CCCC3)nc2n(CCC)c1=O [DPCPX, 1,3-dipropyl-8-cyclopentylxanthine]",did not evoke proepileptic effect; also recorded: did not generate changes in SWD number,did not change SWD number on PTC days,did not change sleep-waking ratios and averaged time of SWDs,–,–,–,–,–
"Nc1nc2c(cnn2CCc2ccccc2)c2nc(-c3ccco3)nn12 [SCH 58261, 7-(2-phenylethyl)-5-amino-2-(2-furyl)-pyrazolo-[4,3-e]-1,2,4-triazolo[1,5-c]pyrimidine]",–,did not change SWD number on PTC days,did not change sleep-waking ratios and averaged time of SWDs,did not generate anti-epileptic effect,–,–,–,–
O=c1ccn([C@@H]2O[C@H](CO)[C@@H](O)[C@H]2O)c(=O)[nH]1 [uridine],–,–,did not change sleep-waking ratios and averaged time of SWDs,–,significant change in SWD number was not observed,only a trend of non-significant decrease in SWD number,significantly decreased SWD number,significantly decreased the SWD number
